The record followed here is ChEMBL document CHEMBL4190400, “Identification of Potent Ebola Virus Entry Inhibitors with Suitable Properties for in Vivo Studies” (J Med Chem, 2018).

pIC50: −log10 of the molar value. Where only a bound is given, the exact number is not on record here.

This experiment has as its system Ebolavirus. Description: Antiviral activity against VSV pseudotyped Ebolavirus expressing M-GFP infected in African green monkey Vero E6 cells assessed as inhibition of viral infection pre-incubated for 2 hrs before infection and measured after 8 to 12 hrs by fluorescence microscopic method. The class given is functional, Vero C1008. The following applies: Orthoebolavirus, Vero C1008.

Consider `O=C(CC12CC3CC(CC(C3)C1)C2)NCC(=O)N1CCN(Cc2cc(Br)ccc2O)CC1`, for which the pIC50 was 6.30.

Take `Nc1ccc(Br)cc1CN1CCN(C(=O)CNC(=O)CC2CCC(F)(F)CC2)CC1`: the pIC50 was 5.76.

As for `CNS(=O)(=O)c1ccc(COc2ccccc2CN2CCN(C(=O)CNC(=O)CC34CC5CC(CC(C5)C3)C4)CC2)cc1`, the pIC50 was 6.52.

In the case of `O=C(CC12CC3CC(CC(O)(C3)C1)C2)NCC(=O)N1CCN(Cc2ccccc2OCc2ccc(Br)cc2)CC1`, the pIC50 is 6.30.

Turning to `COC(=O)c1ccc(Oc2cc(Cl)cc(CN3CCN(C(=O)CNC(=O)CC45CC6CC(CC(C6)C4)C5)CC3)c2)cc1`, the pIC50 was 7.80.

For `O=C(CC12CC3CC(CC(C3)C1)C2)NCC(=O)N1CCN(Cc2cc(Cl)cc(F)c2F)CC1`, the pIC50 was 6.17.

In the case of `COC(=O)c1ccc(/C=C/c2ccccc2CN2CCN(C(=O)CNC(=O)CC34CC5CC(CC(C5)C3)C4)CC2)cc1`, the pIC50 is 5.82.

On to `O=C(CC12CC3CC(CC(C3)C1)C2)NCC(=O)N1CCN(Cc2cc(Cl)c(F)cc2F)CC1`, for which the pIC50 was 6.43.

With `COC(=O)c1ccc(COc2ccccc2CN2CCN(C(=O)CNC(=O)CC3CCC(F)(F)CC3)CC2)cc1`, the pIC50 was 7.30.

Consider `COC(=O)c1ccc(COc2ccccc2CN2CCN(C(=O)CNC(=O)CC3CC(F)(F)C3)CC2)cc1`, for which the pIC50 was 6.52.

As to `O=C(CC1CCC(F)(F)CC1)NCC(=O)N1CCN(Cc2cc(Br)ccc2O)CC1`, the pIC50 is 6.10.

On to `COC(=O)c1ccc(COc2ccc(Cl)cc2CN2CCN(C(=O)CNC(=O)CC34CC5CC(CC(C5)C3)C4)CC2)cc1`, for which the pIC50 was 8.96.

Regarding `CC1(CC(=O)NCC(=O)N2CCN(Cc3ccccc3OCc3ccc(Br)cc3)CC2)CCCCC1`, the pIC50 is 6.28.

Regarding `NC(=O)c1ccc(Cl)cc1CN1CCN(C(=O)CNC(=O)CC23CC4CC(CC(C4)C2)C3)CC1`, the pIC50 was 5.72.

Regarding `O=C(CC12CC3CC(CC(C3)C1)C2)NCC(=O)N1CCN(Cc2cc(Cl)ccc2C(F)(F)F)CC1`, the pIC50 was below 5.70.

`NS(=O)(=O)c1ccc(COc2ccccc2CN2CCN(C(=O)CNC(=O)CC34CC5CC(CC(C5)C3)C4)CC2)cc1`: the pIC50 is 6.46.

Turning to `O=C(CC1CCC(F)(F)CC1)NCC(=O)N1CCN(Cc2cc(Cl)ccc2NC(=O)C2CC2)CC1`, the pIC50 was 5.46.

Consider `O=C(CC12CC3CC(C1)CC(c1ccc(O)c([N+](=O)[O-])c1)(C3)C2)NCC(=O)N1CCN(Cc2ccccc2OCc2ccc(Br)cc2)CC1`, for which the pIC50 is 6.22.

Regarding `COC(=O)c1ccc(COc2ccc(OC)cc2CN2CCN(C(=O)CNC(=O)CC34CC5CC(CC(C5)C3)C4)CC2)cc1`, the pIC50 was 5.85.

With `Nc1ccc(Cl)cc1CN1CCN(C(=O)CNC(=O)CC23CC4CC(CC(C4)C2)C3)CC1`, the pIC50 was 7.05.

Regarding `COC(=O)c1cccc(-c2ccc(Cl)cc2CN2CCN(C(=O)CNC(=O)CC34CC5CC(CC(C5)C3)C4)CC2)c1`, the pIC50 is 6.60.

For `O=C(CC12CC3CC(CC(C3)C1)C2)NCC(=O)N1CCN(Cc2cc(F)c(F)cc2Cl)CC1`, the pIC50 is 5.84.

`COC(=O)c1ccc(COc2ccc(Cl)cc2CN2CCN(C(=O)CNC(=O)CC3CCC(F)(F)CC3)CC2)cc1`: the pIC50 was 7.82.

`O=C(CC12CC3CC(CC(C3)C1)C2)NCC(=O)N1CCN(Cc2cc(Br)ccc2F)CC1`: the pIC50 was 5.92.

`COC(=O)c1ccc(COc2ccc(F)cc2CN2CCN(C(=O)CNC(=O)CC3CCC(F)(F)CC3)CC2)cc1`: the pIC50 is 7.74.

As to `O=C(CC1CCC(F)(F)CC1)NCC(=O)N1CCN(Cc2cc(Cl)cc(F)c2O)CC1`, the pIC50 is 5.55.

In the case of `O=C(CC12CC3CC(CC(C3)C1)C2)NCC(=O)N1CCN(Cc2ccccc2OCc2ccc(Br)cc2)CC1`, the pIC50 was 6.66.

For `O=C(CC12CC3CC(CC(C3)C1)C2)NCC(=O)N1CCN(Cc2cc(Cl)ccc2O)CC1`, the pIC50 is 6.70.

Consider `O=C(CC1CCC(F)(F)CC1)NCC(=O)N1CCN(Cc2cc(Cl)cc(Cl)c2O)CC1`, for which the pIC50 is 5.44.

For the compound `NC(=O)c1ccc(COc2ccccc2CN2CCN(C(=O)CNC(=O)CC34CC5CC(CC(C5)C3)C4)CC2)cc1`, the pIC50 was 6.15.

As to `COC(=O)c1ccc(COc2ccccc2CN2CCN(C(=O)CNC(=O)CC34CC5CC(C3)CC(C(=O)O)(C5)C4)CC2)cc1`, the pIC50 is below 5.70.

For the compound `O=C(CC12CC3CC(CC(Br)(C3)C1)C2)NCC(=O)N1CCN(Cc2ccccc2OCc2ccc(Br)cc2)CC1`, the negative logarithm of the IC50 (pIC50) was 6.22.

As to `CN(C)S(=O)(=O)c1ccc(COc2ccccc2CN2CCN(C(=O)CNC(=O)CC34CC5CC(CC(C5)C3)C4)CC2)cc1`, the pIC50 was 6.40.

With `CC(=O)Nc1ccc(Cl)cc1CN1CCN(C(=O)CNC(=O)CC23CC4CC(CC(C4)C2)C3)CC1`, the pIC50 was 6.02.

Regarding `N#Cc1ccc(Br)cc1CN1CCN(C(=O)CNC(=O)CC23CC4CC(CC(C4)C2)C3)CC1`, the pIC50 is 6.51.

Consider `O=C(CC12CC3CC(CC(C3)C1)C2)NCC(=O)N1CCN(Cc2cc(Cl)ccc2F)CC1`, for which the pIC50 is 6.44.

As to `COC(=O)c1ccc(COc2ccc(Br)cc2CN2CCN(C(=O)CNC(=O)CC34CC5CC(CC(C5)C3)C4)CC2)cc1`, the pIC50 was 8.05.

`COC(=O)c1ccc(COc2ccc(C#N)cc2CN2CCN(C(=O)CNC(=O)CC34CC5CC(CC(C5)C3)C4)CC2)cc1`: the pIC50 was 7.30.

Turning to `O=C(CC12CC3CC(CC(C3)C1)C2)NCC(=O)N1CCN(Cc2cc(Br)ccc2Cl)CC1`, the pIC50 was 5.66.

On to `O=C(CC1CCC(F)(F)CC1)NCC(=O)N1CCN(Cc2cc(Cl)ccc2O)CC1`, for which the pIC50 was 6.33.

Take `O=C(CC1CCC(F)(F)CC1)NCC(=O)N1CCN(Cc2cc(Cl)ccc2NS(=O)(=O)C2CC2)CC1`: the pIC50 was 5.66.

Take `O=C(CC12CC3CC(C1)CC(c1ccccc1)(C3)C2)NCC(=O)N1CCN(Cc2ccccc2OCc2ccc(Br)cc2)CC1`: the pIC50 is 6.15.

For `O=C(CC12CC3CC(CC(C3)C1)C2)NCC(=O)N1CCN(Cc2cc(Cl)cc(Cl)c2Cl)CC1`, the pIC50 is 6.37.

With `COC(=O)c1ccc(CCc2ccccc2CN2CCN(C(=O)CNC(=O)CC34CC5CC(CC(C5)C3)C4)CC2)cc1`, the pIC50 was 7.70.

For the compound `O=C(CC12CC3CC(CC(Cl)(C3)C1)C2)NCC(=O)N1CCN(Cc2ccccc2OCc2ccc(Br)cc2)CC1`, the pIC50 is 6.30.

Turning to `O=C(CC12CC3CC(CC(C3)C1)C2)NCC(=O)N1CCN(Cc2c(F)ccc(Cl)c2F)CC1`, the pIC50 is 5.87.

`COC(=O)c1ccc(COc2ccccc2CN2CCN(C(=O)CNC(=O)CC3(C)CCCCC3)CC2)cc1`: the pIC50 was 7.10.

Take `COC(=O)c1ccc(COc2ccc(F)cc2CN2CCN(C(=O)CNC(=O)CC34CC5CC(CC(C5)C3)C4)CC2)cc1`: the pIC50 is 8.85.

Consider `COC(=O)c1ccc(COc2ccc(C)cc2CN2CCN(C(=O)CNC(=O)CC34CC5CC(CC(C5)C3)C4)CC2)cc1`, for which the pIC50 is 7.92.

Regarding `COC(=O)c1ccc(COc2ccc(Cl)cc2CN2CCN(C(=O)CNC(=O)C(F)(F)C(F)F)CC2)cc1`, the pIC50 was 6.80.

Take `O=C(NCC(=O)N1CCN(Cc2cc(Cl)ccc2O)CC1)C1CC12CCC(F)(F)CC2` (racemic): the pIC50 is 6.74.

Take `Nc1ccc(Cl)cc1CN1CCN(C(=O)CNC(=O)C2CC23CCC3)CC1` (racemic): the pIC50 was 5.60.

`Nc1ccc(Cl)cc1CN1CCN(C(=O)CNC(=O)C2CC23CCC(F)(F)CC3)CC1` (racemic): the pIC50 was 7.00.

Take `Nc1ccc(Cl)cc1CN1CCN(C(=O)CNC(=O)C2CC23CCCC3)CC1` (racemic): the pIC50 was 6.62.
